Test results: PMC6972889, “Structural insight into small molecule action on Frizzleds” (Nature Communications, 2020)
Structures can show the parent of a compound that is named as a salt.

Legend:
[1] = biological target: T1, FZD6 (Nluc–FZD6; SNAP–FZD6; SNAP–FZD6–Rluc8; FLAG–FZD6–Nluc) (Homo sapiens, UniProt O60353); assay: BRET Venus–mGsi recruitment to SNAP–FZD6–Rluc8; type: cell-based; conditions: agonist; no bell shape
T1 construct: expressed in SMO-knockout HEK293 cells
T1 sequence (O60353 19-706): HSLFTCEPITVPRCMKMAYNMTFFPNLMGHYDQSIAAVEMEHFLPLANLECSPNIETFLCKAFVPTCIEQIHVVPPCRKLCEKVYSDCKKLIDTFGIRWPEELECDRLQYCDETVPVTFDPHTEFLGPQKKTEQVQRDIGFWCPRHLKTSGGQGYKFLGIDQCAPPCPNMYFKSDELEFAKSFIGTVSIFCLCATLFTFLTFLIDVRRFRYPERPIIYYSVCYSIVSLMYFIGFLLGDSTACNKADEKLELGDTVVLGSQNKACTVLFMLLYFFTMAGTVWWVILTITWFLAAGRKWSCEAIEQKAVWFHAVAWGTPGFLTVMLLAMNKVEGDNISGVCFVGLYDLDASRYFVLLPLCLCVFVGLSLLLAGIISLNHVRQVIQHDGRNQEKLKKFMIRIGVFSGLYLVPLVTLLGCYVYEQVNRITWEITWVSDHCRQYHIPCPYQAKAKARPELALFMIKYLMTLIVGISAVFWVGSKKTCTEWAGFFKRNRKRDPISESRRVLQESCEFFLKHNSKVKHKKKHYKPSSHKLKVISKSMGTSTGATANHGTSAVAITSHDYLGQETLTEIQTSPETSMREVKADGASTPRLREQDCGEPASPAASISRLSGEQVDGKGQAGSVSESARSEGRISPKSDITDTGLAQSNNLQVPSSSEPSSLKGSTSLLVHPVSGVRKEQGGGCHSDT

SMO–Rluc8 = biological target: T2, SMO–Rluc8 (Mus musculus, UniProt P56726); assay: BRET Venus–mGsi recruitment to SMO–Rluc8; type: cell-based; conditions: agonist; no bell shape
T2 construct: full-length receptor with C-terminal Rluc8; expressed in HEK293-derived cells

[2] = biological target: T1, FZD6 (Nluc–FZD6; SNAP–FZD6; SNAP–FZD6–Rluc8; FLAG–FZD6–Nluc); assay: NanoBRET saturation binding, living SMO-knockout HEK293 cells; type: cell-based; conditions: Nluc–FZD6, 90 min, 37 °C; labelled compound
[3] = biological target: T1, FZD6 (Nluc–FZD6; SNAP–FZD6; SNAP–FZD6–Rluc8; FLAG–FZD6–Nluc); assay: NanoBRET competition binding, living SMO-knockout HEK293 cells; type: cell-based
[4] = biological target: T3, FZD4 (FZD4–Nluc; SNAP–FZD4) (Homo sapiens, UniProt Q9ULV1); assay: BRET Venus–mG13 recruitment to FZD4–Nluc; type: cell-based; conditions: negative control subtype
T3 construct: full-length receptor with C-terminal Nluc or N-terminal SNAP; expressed in HEK293-derived cells
T3 sequence (Q9ULV1 37-537): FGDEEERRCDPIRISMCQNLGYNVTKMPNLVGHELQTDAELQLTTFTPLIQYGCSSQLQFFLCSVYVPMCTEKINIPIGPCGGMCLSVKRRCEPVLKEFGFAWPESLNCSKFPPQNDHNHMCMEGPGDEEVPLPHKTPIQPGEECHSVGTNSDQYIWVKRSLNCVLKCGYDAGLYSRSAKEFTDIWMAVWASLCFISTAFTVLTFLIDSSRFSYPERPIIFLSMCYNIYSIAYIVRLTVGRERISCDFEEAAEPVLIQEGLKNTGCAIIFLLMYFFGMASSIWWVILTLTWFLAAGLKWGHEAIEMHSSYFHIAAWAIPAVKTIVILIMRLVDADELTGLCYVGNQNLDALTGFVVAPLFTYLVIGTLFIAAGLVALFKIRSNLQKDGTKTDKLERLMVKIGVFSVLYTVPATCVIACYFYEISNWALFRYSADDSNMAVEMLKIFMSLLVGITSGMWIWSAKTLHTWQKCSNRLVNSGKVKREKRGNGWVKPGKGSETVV

[5] = biological target: T1, FZD6 (Nluc–FZD6; SNAP–FZD6; SNAP–FZD6–Rluc8; FLAG–FZD6–Nluc); assay: BRET Venus–mGsi recruitment in SMO-knockout HEK293 cells; type: cell-based; conditions: agonist; bell-shaped curve
FZD6–FlAsH–TFP = biological target: T4, FZD6–FlAsH–TFP (Homo sapiens, UniProt O60353, INS404FLNCCPGCCMEP); assay: intramolecular FRET conformational probe in HEK293 cells; type: cell-based
T4 construct: from FZD6–GFP; expressed in HEK293 cells
T4 sequence (O60353 with tags, fused parts or gaps INS404FLNCCPGCCMEP): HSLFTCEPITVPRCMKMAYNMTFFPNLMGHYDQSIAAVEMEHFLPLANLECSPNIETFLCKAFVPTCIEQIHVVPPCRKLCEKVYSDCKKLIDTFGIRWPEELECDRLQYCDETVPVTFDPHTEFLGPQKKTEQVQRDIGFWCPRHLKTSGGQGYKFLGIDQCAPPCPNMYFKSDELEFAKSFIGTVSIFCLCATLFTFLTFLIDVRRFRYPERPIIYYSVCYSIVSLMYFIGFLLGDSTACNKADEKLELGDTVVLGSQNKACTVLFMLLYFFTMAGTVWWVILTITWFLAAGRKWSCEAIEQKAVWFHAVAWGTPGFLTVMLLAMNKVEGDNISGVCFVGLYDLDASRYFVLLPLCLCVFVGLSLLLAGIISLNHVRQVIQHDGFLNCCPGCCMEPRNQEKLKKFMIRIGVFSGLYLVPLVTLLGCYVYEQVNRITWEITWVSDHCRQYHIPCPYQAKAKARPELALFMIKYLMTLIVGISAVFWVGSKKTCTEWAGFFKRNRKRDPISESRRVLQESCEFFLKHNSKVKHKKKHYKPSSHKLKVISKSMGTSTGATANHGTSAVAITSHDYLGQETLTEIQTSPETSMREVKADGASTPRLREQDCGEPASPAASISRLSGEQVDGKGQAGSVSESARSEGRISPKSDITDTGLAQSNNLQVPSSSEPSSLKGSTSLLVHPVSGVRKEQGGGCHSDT

FZD6–FlAsH–TFP (human) = biological target: T5, FZD6–FlAsH–TFP (human) (UniProt O60353)
T5 sequence (chain, FlAsH (fluorescein arsenical hairpin binder) labelled on the FlAsH-binding motif): T1 sequence (O60353 19-706)

T2 sequence (P56726 33-793): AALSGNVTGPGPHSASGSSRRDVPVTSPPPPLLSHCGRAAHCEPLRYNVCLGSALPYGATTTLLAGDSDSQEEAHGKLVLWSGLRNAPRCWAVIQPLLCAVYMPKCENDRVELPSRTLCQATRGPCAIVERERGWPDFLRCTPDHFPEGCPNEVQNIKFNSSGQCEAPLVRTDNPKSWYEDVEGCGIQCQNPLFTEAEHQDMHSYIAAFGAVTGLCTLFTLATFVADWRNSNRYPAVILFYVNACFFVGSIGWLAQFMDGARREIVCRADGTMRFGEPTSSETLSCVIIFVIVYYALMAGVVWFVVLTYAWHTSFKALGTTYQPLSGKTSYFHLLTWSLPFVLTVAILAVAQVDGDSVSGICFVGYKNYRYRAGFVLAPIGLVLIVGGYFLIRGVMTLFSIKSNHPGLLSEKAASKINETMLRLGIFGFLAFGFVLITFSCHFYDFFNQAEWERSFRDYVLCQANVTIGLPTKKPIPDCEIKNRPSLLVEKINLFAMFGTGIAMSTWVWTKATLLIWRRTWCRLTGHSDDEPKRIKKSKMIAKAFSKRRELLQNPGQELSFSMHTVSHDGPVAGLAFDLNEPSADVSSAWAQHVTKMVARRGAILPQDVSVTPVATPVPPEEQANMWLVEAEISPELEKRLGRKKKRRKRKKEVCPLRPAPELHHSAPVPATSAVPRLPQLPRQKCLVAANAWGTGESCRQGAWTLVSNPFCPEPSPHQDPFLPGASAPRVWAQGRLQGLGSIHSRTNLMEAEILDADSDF

## c1ccc2c(Oc3nc(Nc4ccc(N5CCOCC5)cc4)c4ncn(C5CCCCC5)c4n3)cccc2c1 [purmorphamine, 9-cyclohexyl-N-[4-(4-morpholinyl)phenyl]-2-(1-naphthalenyloxy)-9H-purin-6-amine]
[1]
  EC50: concentration-dependent recruitment of Venus–mGsi to SMO–Rluc8 (d) and SNAP–FZD6–Rluc8
SMO–Rluc8
  EC50: concentration-dependent recruitment of Venus–mGsi to SMO–Rluc8 and SNAP–FZD6–Rluc8

## CC1=C2CC3C(CC=C4C[C@@H](O)CCC43C)C2CCC12O[C@@H]1CC(C)CN(CCNC(=O)CCCCCNC(=O)CCC3=[N+]4C(=Cc5c(C)cc(C)n5[B-]4(F)F)C=C3)C1C2C (stereo partly drawn) [BODIPY–cyclopamine]
[2]
  pKd: 6.3 ± 0.1

## CN[C@H]1CC[C@H](N(Cc2cccc(-c3ccncc3)c2)C(=O)c2sc3ccccc3c2Cl)CC1 [SAG1.3, 3-chloro-N-[trans-4-(methylamino)cyclohexyl]-N-[[3-(4-pyridinyl)phenyl]methyl]-benzo[b]thiophene-2-carboxamide dihydrochloride]
[3]
  Ki: 2510 nM
[4]
  BRET Venus-mG13 recruitment to FZD4-Nluc: we did not detect any SAG1.3-induced Venus–mG13 recruitment
[5]
  EC50: A similar biphasic concentration–response curve was observed
FZD6–FlAsH–TFP
  EC50: 316 nM

B1: recombinant WNT-5A (ligand)
chain: IIGAQPLCSQLAGLSQGQKKLCHLYQDHMQYIGEGAKTGIKECQYQFRHRRWNCSTVDNTSVFGRVMQIGSRETAFTYAVSAAGVVNAMSRACREGELSTCGCSRAARPKDLPRDWLWGGCGDNIDYGYRFAKEFVDARERERIHAKGSYESARILMNLHNNEAGRRTVYNLADVACKCHGVSGSCSLKTCWLQLADFRKVGDALKEKYDSAAAMRLNSRGKLVQVNSRFNSPTTQDLVYIDPSPDYCVRNESTGSLGTQGRLCNKTSEGMDGCELMCCGRGYDQFKTVQTERCHCKFHWCCYVKCKKCTEIVDQFVCK
FZD6–FlAsH–TFP (human)
  decrease of the intramolecular FRET ratio (FlAsH/TFP) of the FZD6–FRET probe in HEK293 cells with increasing concentrations of WNT-5A; log10EC50 (log10 (ng ml^−1)): 2.2
  decrease of the intramolecular FRET ratio (FlAsH/TFP) of the FZD6–FRET probe in HEK293 cells, WNT-5A up to 1000 ng ml^−1; maximum efficacy: 4.9%
